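A five-concentration, 48-hour dose response in 96-well plates underlies each endpoint, interpolated linearly between surrounding concentrations. Here, GI50 denotes the concentration required for 50% inhibition of growth.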 Active and inactive are the calls of the source. No stated cut-off is given here; in the data, active = GI50 up to about 1.1 µM and inactive = higher.
How the values were obtained:
Assay in all cases: NCI tumour cell line growth inhibition, 48 h
[1] = test system: A498
[2] = test system: A549
[3] = test system: HCT-15
[4] = test system: HL-60
[5] = test system: HT-29
[6] = test system: LOX IMVI
[7] = test system: Malme-3M
[8] = test system: NCI-H460
[9] = test system: OVCAR-5
[10] = test system: OVCAR-8
[11] = test system: SF-539
[12] = test system: SK-MEL-28
[13] = test system: U-251
[14] = test system: UACC-257
[15] = test system: UO-31
[16] = test system: NCI-H226

Structure (SMILES) | GI50 [1] | GI50 [2] | GI50 [3] [µM] | GI50 [4] | GI50 [5] | GI50 [6] | GI50 [7] | GI50 [8] | GI50 [9] | GI50 [10] | GI50 [11] | GI50 [12] | GI50 [13] | GI50 [14] | GI50 [15] | GI50 [16]
C=CCN(N=O)C(=O)N(CCCC(NC(C)=O)C(=O)NCc1ccccc1)Cc1ccccc1 (stereo not given) | 99.3 µM (inactive) | 61.9 µM (inactive) | 73.8 | 19.6 µM (inactive) | 24.2 µM (inactive) | 46.9 µM (inactive) | 98.4 µM (inactive) | 55.8 µM (inactive) | > 100 µM (inactive) | 67.3 µM (inactive) | 37.2 µM (inactive) | 79.4 µM (inactive) | 78.7 µM (inactive) | 57.7 µM (inactive) | 33.1 µM (inactive) | 
COc1ccccc1NC(=O)CC(=O)NNCC(=O)Nc1nnc(-c2ccccc2)o1 | > 100 µM (inactive) | > 100 µM (inactive) | > 100 |  | > 100 µM (inactive) | > 100 µM (inactive) |  |  | > 100 µM (inactive) | > 100 µM (inactive) | > 100 µM (inactive) | > 100 µM (inactive) | > 100 µM (inactive) | > 100 µM (inactive) | > 100 µM (inactive) | > 100 µM (inactive)
CCN(CC)c1ccc(/N=C2/C=CC(=C(C#N)C#N)c3ccccc32)c(C)c1 |  | 2.18 µM (inactive) | 2.15 | 1.26 µM (inactive) | 3.24 µM (inactive) | 1.72 µM (inactive) | 1.87 µM (inactive) | 2.55 µM (inactive) |  | 2.23 µM (inactive) |  | 1.64 µM (inactive) | 1.56 µM (inactive) | 2.16 µM (inactive) | 2.29 µM (inactive) | 
COc1ccc(C(C#N)NNC(=O)Cc2ccccc2)cc1OC (stereo not given) |  | > 100 µM (inactive) | > 100 | > 100 µM (inactive) | > 100 µM (inactive) | > 100 µM (inactive) | > 100 µM (inactive) | > 100 µM (inactive) | > 100 µM (inactive) | > 100 µM (inactive) | > 100 µM (inactive) | > 100 µM (inactive) | > 100 µM (inactive) | > 100 µM (inactive) | > 100 µM (inactive) | > 100 µM (inactive)
CC(=O)NC(ON1C(=O)COc2ccccc21)C(Cl)(Cl)Cl (stereo not given) |  | > 100 µM (inactive) | > 100 | > 100 µM (inactive) | > 100 µM (inactive) | > 100 µM (inactive) | > 100 µM (inactive) | > 100 µM (inactive) | > 100 µM (inactive) | > 100 µM (inactive) | > 100 µM (inactive) | > 100 µM (inactive) | > 100 µM (inactive) | > 100 µM (inactive) | > 100 µM (inactive) | 33.4 µM (inactive)
CC1CC(c2ccccc2)=Nc2ccccc2S1(=O)=O (stereo not given) | 14.8 µM (inactive) | 23.6 µM (inactive) | 24.1 | 21 µM (inactive) |  | 17.3 µM (inactive) | 17.9 µM (inactive) | 16.3 µM (inactive) | 18.6 µM (inactive) | 21.1 µM (inactive) | 18.4 µM (inactive) | 16.3 µM (inactive) | 18.1 µM (inactive) | 11.6 µM (inactive) | 15.6 µM (inactive) | 
CN(C)CCNC(=O)c1ccccc1Nc1c(Cl)cccc1Cl |  | 10.9 µM (inactive) | 14.8 | 11 µM (inactive) | 6.75 µM (inactive) | 12.8 µM (inactive) |  |  | 10.4 µM (inactive) | 14.1 µM (inactive) | 13.1 µM (inactive) | 14.8 µM (inactive) | 11.6 µM (inactive) | 5.75 µM (inactive) | 4.52 µM (inactive) | 11.5 µM (inactive)
Cc1cc2c(c(C(=O)O)c1C)-c1cccc(Cl)c1C2=O |  | > 100 µM (inactive) | > 100 |  | > 100 µM (inactive) | > 100 µM (inactive) | > 100 µM (inactive) | > 100 µM (inactive) | > 100 µM (inactive) | > 100 µM (inactive) |  | > 100 µM (inactive) | > 100 µM (inactive) | > 100 µM (inactive) | > 100 µM (inactive) | > 100 µM (inactive)

Source: ChEMBL document CHEMBL1201862, “PubChem BioAssay data set” (2004)
